Experimental data from patent publication US11208422B2, “Substituted bridged diazepane derivatives and use thereof as TASK-1 and TASK-3 inhibitors” (Bayer Pharma Aktiengesellschaft, priority 2017, dated 2021).

Experiments:
recombinant TASK-1 = recombinant TASK-1 (Homo sapiens (Human), UniProt O14649); test: Inhibition of recombinant TASK-1 in stably transfected CHO cells (KCl-induced depolarization, voltage-sensitive dye, FLIPR); type: cell-based; settings: depolarization induced by 40 mM potassium chloride, some mean values from multiple determinations
Description: (§1) The compounds of the invention were tested here with administration of 40 mM of potassium chloride in the presence of a voltage-sensitive dye using the method described in detail in the following references [Whiteaker et al., Validation of FLIPR membrane potential dye for high-throughput screening of potassium channel modulators, J. Biomol. Screen. 6 (5), 305-312 (2001); Molecular Devices FLIPR Application Note: Measuring membrane potential using the FLIPR® membrane potential assay kit on Fluorometric Imaging Plate Reader (FLIPR®) systems, http://www.moleculardevices.com/reagents-supplies/assay-kits/ion-channels/flipr-membrane-potential-assay-kits]. The activity of the test substances was determined as their ability to inhibit a depolarization induced in the recombinant cells by 40 mM potassium chloride. The concentration which can block half of this depolarization is referred to as IC50.

recombinant TASK-3 = recombinant TASK-3 (Homo sapiens (Human), UniProt Q9NPC2); test: Inhibition of recombinant TASK-3 in stably transfected CHO cells (KCl-induced depolarization, voltage-sensitive dye, FLIPR); type: cell-based; settings: depolarization induced by 40 mM potassium chloride, some mean values from multiple determinations
Description: as §1

Sequence of recombinant TASK-1 (O14649 whole entry): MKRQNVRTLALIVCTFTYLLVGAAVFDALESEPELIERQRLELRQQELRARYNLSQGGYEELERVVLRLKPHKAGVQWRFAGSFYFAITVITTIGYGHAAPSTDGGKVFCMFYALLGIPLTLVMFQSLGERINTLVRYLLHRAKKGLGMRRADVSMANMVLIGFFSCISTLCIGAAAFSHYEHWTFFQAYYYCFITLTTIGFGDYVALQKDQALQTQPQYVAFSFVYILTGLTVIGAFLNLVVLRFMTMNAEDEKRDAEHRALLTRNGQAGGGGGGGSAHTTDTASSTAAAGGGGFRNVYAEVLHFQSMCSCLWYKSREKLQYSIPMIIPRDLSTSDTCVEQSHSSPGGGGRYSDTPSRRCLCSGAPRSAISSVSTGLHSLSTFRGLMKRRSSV
Sequence of recombinant TASK-3 (Q9NPC2 whole entry): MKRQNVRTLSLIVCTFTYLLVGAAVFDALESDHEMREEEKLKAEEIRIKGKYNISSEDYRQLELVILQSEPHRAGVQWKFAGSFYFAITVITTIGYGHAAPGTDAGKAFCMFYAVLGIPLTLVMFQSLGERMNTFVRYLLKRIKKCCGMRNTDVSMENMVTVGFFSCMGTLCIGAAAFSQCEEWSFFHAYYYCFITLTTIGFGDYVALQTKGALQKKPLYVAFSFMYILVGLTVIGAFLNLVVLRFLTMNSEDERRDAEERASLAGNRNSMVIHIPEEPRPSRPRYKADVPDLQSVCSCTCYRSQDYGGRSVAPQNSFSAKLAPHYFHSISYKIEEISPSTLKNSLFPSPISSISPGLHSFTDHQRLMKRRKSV

Compound | IC50 (recombinant TASK-1) | IC50 (recombinant TASK-3)
COc1cccc(C(=O)N2C3CCC2CN(Cc2c(-c4ccc(Cl)cc4)nc4ncccn24)CC3)n1 (single isomer, unassigned) [Example 86, [3-{[2-(4-chlorophenyl)imidazo[1,2-a]pyrimidin-3-yl]methyl}-3,9-diazabicyclo[4.2.1]non-9-yl](6-methoxypyridin-2-yl)methanone] | 0.34 µM | 0.028 µM
COc1cccc(C(=O)N2CC3CCC2CN(Cc2c(-c4ccc(Cl)cc4)nc4ccccn24)C3)n1 (single isomer, unassigned) [Example 95, [3-{[2-(4-chlorophenyl)imidazo[1,2-a]pyridin-3-yl]methyl}-3,6-diazabicyclo[3.2.2]non-6-yl](6-methoxypyridin-2-yl)methanone] | 4.9 µM | 0.71 µM
COc1ccc(F)c(C(=O)N2C3CCN(Cc4c(-c5ccc(Cl)cc5)nc5ccccn45)CC2COC3)n1 (racemic) [Example 92, [3-{[2-(4-chlorophenyl)imidazo[1,2-a]pyridin-3-yl]methyl}-8-oxa-3,10-diazabicyclo[4.3.1]dec-10-yl](3-fluoro-6-methoxypyridin-2-yl)methanone] | 0.085 µM | 0.0025 µM
COc1ccc(F)c(C(=O)N2CC3CCC2CN(Cc2c(-c4ccc(Cl)cc4)nc4ccccn24)C3)n1 (single isomer, unassigned) [Example 94, [3-{[2-(4-chlorophenyl)imidazo[1,2-a]pyridin-3-yl]methyl}-3,6-diazabicyclo[3.2.2]non-6-yl](3-fluoro-6-methoxypyridin-2-yl)methanone] | 3.2 µM | 0.11 µM
O=C(c1ccccc1F)N1C2CCC1CN(Cc1c(-c3ccc(Cl)cc3)nc3ccccn13)CC2 (racemic) [Example 69, [3-{[2-(4-chlorophenyl)imidazo[1,2-a]pyridin-3-yl]methyl}-3,9-diazabicyclo[4.2.1]non-9-yl](2-fluorophenyl)methanone] | 1.4 µM | 0.062 µM
COc1ccc(F)c(C(=O)N2CCC3CCC(C2)N3Cc2c(-c3ccc(C(C)C)cc3)nc3ncccn23)n1 (centres unmarked) [Example 58] | 2.9 µM | 0.92 µM
COc1cccc(C(=O)N2CCC3CCC(C2)N3Cc2c(-c3ccc(C(C)C)cc3)nc3ncccn23)n1 (centres unmarked) [Example 60] | 5.2 µM | 1 µM
CC(C)c1ccc(-c2nc3ncccn3c2CN2CC3CCC2CCN3C(=O)c2ccccc2F)cc1 (centres unmarked) [Example 46] | 16 µM | 1 µM
Cc1nonc1C(=O)N1C2CCN(Cc3c(-c4ccc(Cl)cc4)nc4ccccn34)CC1COC2 (racemic) [Example 73, [3-{[2-(4-chlorophenyl)imidazo[1,2-a]pyridin-3-yl]methyl}-8-oxa-3,10-diazabicyclo[4.3.1]dec-10-yl](4-methyl-1,2,5-oxadiazol-3-yl)methanone] | 0.099 µM | 0.005 µM
CC(C)c1ccc(-c2nc3ncccn3c2CN2C3CCC2CN(C(=O)C2CCCC2)CC3)cc1 (centres unmarked) [Example 62] | 8.4 µM | 1 µM
COc1cccc(C(=O)N2CCC3CCC2CN3Cc2c(-c3ccc(Cl)cc3)nc3ccccn23)n1 (centres unmarked) [Example 37] | 30 µM | 1 µM
COc1cccc(C(=O)N2C3CCC2CN(Cc2c(-c4ccc(C(C)C)cc4)nc4ncccn24)CC3)n1 (centres unmarked) [Example 104] | 0.6 µM | 0.031 µM
CC(C)c1ccc(-c2nc3ncccn3c2CN2C3CCC2CN(C(=O)c2ccccc2F)CC3)cc1 (centres unmarked) [Example 64] | 7.2 µM | 1.8 µM
CC(C)c1ccc(-c2nc3ncccn3c2CN2CC3CCC2CCN3C(=O)c2cccc(OC(F)F)n2)cc1 (centres unmarked) [Example 45] | 2.9 µM | 0.17 µM
COc1ccc(F)c(C(=O)N2C3CCC2CN(Cc2c(-c4ccc(Cl)cc4)nc4ccccn24)CC3)n1 (single isomer, unassigned) [Example 79, [3-{[2-(4-chlorophenyl)imidazo[1,2-a]pyridin-3-yl]methyl}-3,9-diazabicyclo[4.2.1]non-9-yl](3-fluoro-6-methoxypyridin-2-yl)methanone] | 0.29 µM | 0.011 µM
COc1cccc(C(=O)N2CCC3CCC2CN3Cc2c(-c3ccc(Cl)cc3)nc3ncccn23)n1 (centres unmarked) [Example 21] | 18 µM | 0.14 µM
O=C(c1ccccc1F)N1CCC2CCC1CN2Cc1c(-c2ccc(Cl)cc2)nc2ccccn12 (centres unmarked) [Example 36] | 30 µM | 1 µM
COc1ccc(F)c(C(=O)N2C3CCC2CN(Cc2c(-c4ccc(C(C)C)cc4)nc4ncccn24)CC3)n1 (centres unmarked) [Example 102] | 0.17 µM | 0.036 µM
COc1cccc(C(=O)N2CCC3CCC2CN3Cc2c(-c3ccc(Cl)cc3)nc3ncccn23)n1 (centres unmarked) [Example 32] | 0.13 µM | 0.0041 µM

Compound | IC50 (recombinant TASK-1) | IC50 (recombinant TASK-3)
COc1cccc(C(=O)N2C3CCC2CN(Cc2c(-c4ccc(Cl)cn4)nc4ccccn24)CC3)n1 (single isomer, unassigned) [Example 84, [3-{[2-(5-chloropyridin-2-yl)imidazo[1,2-a]pyridin-3-yl]methyl}-3,9-diazabicyclo[4.2.1]non-9-yl](6-methoxypyridin-2-yl)methanone] | 0.35 µM | 0.025 µM
COc1cccc(C(=O)N2C3CCC2CN(Cc2c(-c4ccc(Cl)cc4)nc4ccccn24)CC3)n1 (racemic) [Example 70, [3-{[2-(4-chlorophenyl)imidazo[1,2-a]pyridin-3-yl]methyl}-3,9-diazabicyclo[4.2.1]non-9-yl](6-methoxypyridin-2-yl)methanone] | 0.305 µM | 0.0047 µM
COc1ccc(Cl)c(C(=O)N2CCC3CCC(C2)N3Cc2c(-c3ccc(C(C)C)cc3)nc3ncccn23)n1 (centres unmarked) [Example 54] | 0.78 µM | 0.29 µM
COc1ccc(Cl)c(C(=O)N2CCC3CCC2CN3Cc2c(-c3ccc(Cl)cc3)nc3ncccn23)n1 (centres unmarked) [Example 23] | 3 µM | 0.024 µM
O=C(c1ccccc1F)N1C2CCC1CN(Cc1c(-c3ccc(Cl)cc3)nc3ccccn13)CC2 (single isomer, unassigned) [Example 88, [3-{[2-(4-Chlorophenyl)imidazo[1,2-a]pyridin-3-yl]methyl}-3,9-diazabicyclo[4.2.1]non-9-yl](2-fluorophenyl)methanone] | 0.091 µM | 0.0016 µM
COc1ccc(Cl)c(C(=O)N2CCC3CCC2CN3Cc2c(-c3ccc(Cl)cc3)nc3ccccn23)n1 (centres unmarked) [Example 28] | 0.28 µM | 0.0056 µM
O=C(c1cccc(OC(F)(F)F)n1)N1CCC2CCC1CN2Cc1c(-c2ccc(Cl)cc2)nc2ncccn12 (centres unmarked) [Example 66] | 0.18 µM | 0.019 µM
O=C(c1ccccc1F)N1C2CCN(Cc3c(-c4ccc(Cl)cc4)nc4ncccn34)CC1COC2 (racemic) [Example 74, [3-{[2-(4-chlorophenyl)imidazo[1,2-a]pyrimidin-3-yl]methyl}-8-oxa-3,10-diazabicyclo[4.3.1]dec-10-yl](2-fluorophenyl)methanone] | 5 µM | 0.2 µM
COc1ccc(F)c(C(=O)N2CCC3CCC2CN3Cc2c(-c3ccc(Cl)cc3)nc3ncccn23)n1 (single isomer, unassigned) [Example 17, [6-{[2-(4-Chlorophenyl)imidazo[1,2-a]pyrimidin-3-yl]methyl}-2,6-diazabicyclo[3.2.2]non-2-yl](3-fluoro-6-methoxypyridin-2-yl)methanone] | 3.3 µM | 0.015 µM
CC(C)c1ccc(-c2nc3ncccn3c2CN2C3CCC2CN(C(=O)c2cccc(OC(F)F)n2)CC3)cc1 (centres unmarked) [Example 61] | 9.4 µM | 1 µM
COc1ccc(Cl)c(C(=O)N2CCC3CCC2CN3Cc2c(-c3ccc(C(C)C)cc3)nc3ncccn23)n1 (centres unmarked) [Example 50] | 2.5 µM | 0.44 µM
COc1cccc(C(=O)N2C3CCC2CN(Cc2c(-c4ccc(Cl)cn4)nc4ccccn24)CC3)n1 (single isomer, unassigned) [Example 85, [3-{[2-(5-chloropyridin-2-yl)imidazo[1,2-a]pyridin-3-yl]methyl}-3,9-diazabicyclo[4.2.1]non-9-yl](6-methoxypyridin-2-yl)methanone] | 6.3 µM | 0.37 µM
O=C(c1ccccc1F)N1CCC2CCC1CN2Cc1c(-c2ccc(Cl)cc2)nc2ncccn12 (centres unmarked) [Example 22] | 27 µM | 0.37 µM
COc1cccc(C(=O)N2CCC3CCC2CN3Cc2c(-c3ccc(Cl)cn3)nc3ccccn23)n1 (centres unmarked) [Example 18] | 1.6 µM | 0.167 µM
O=C(c1ccccc1F)N1C2CCC1CN(Cc1c(-c3ccc(Cl)cc3)nc3ccccn13)CC2 (single isomer, unassigned) [Example 89, [3-{[2-(4-Chlorophenyl)imidazo[1,2-a]pyridin-3-yl]methyl}-3,9-diazabicyclo[4.2.1]non-9-yl](2-fluorophenyl)methanone] | 0.31 µM | 0.019 µM
O=C(c1ccccc1F)N1CCC2CCC1CN2Cc1c(-c2ccc(Cl)cn2)nc2ccccn12 (centres unmarked) [Example 30] | 2.3 µM | 0.22 µM
COc1cccc(C(=O)N2C3CCC2CN(Cc2c(-c4ccc(Cl)cc4)nc4ccccn24)CC3)n1 (single isomer, unassigned) [Example 90, [3-{[2-(4-Chlorophenyl)imidazo[1,2-a]pyridin-3-yl]methyl}-3,9-diazabicyclo[4.2.1]non-9-yl](6-methoxypyridin-2-yl)methanone] | 0.043 µM | 0.0028 µM
COc1cccc(C(=O)N2CCC3CCC2CN3Cc2c(-c3ccc(Cl)cc3)nc3ccccn23)n1 (centres unmarked) [Example 26] | 0.83 µM | 0.0069 µM
